In brackets after ≈: the same amount, converted by molar mass.
Columns and labels:
ncOGT = target: T1, ncOGT (Homo sapiens, UniProt O15294); assay: UDP-Glo Glycosyltransferase Assay (IC50/Ki); assay type: biochemical
T1 construct: Full length human OGT (ncOGT); made in house
T1 sequence (O15294 1-1046): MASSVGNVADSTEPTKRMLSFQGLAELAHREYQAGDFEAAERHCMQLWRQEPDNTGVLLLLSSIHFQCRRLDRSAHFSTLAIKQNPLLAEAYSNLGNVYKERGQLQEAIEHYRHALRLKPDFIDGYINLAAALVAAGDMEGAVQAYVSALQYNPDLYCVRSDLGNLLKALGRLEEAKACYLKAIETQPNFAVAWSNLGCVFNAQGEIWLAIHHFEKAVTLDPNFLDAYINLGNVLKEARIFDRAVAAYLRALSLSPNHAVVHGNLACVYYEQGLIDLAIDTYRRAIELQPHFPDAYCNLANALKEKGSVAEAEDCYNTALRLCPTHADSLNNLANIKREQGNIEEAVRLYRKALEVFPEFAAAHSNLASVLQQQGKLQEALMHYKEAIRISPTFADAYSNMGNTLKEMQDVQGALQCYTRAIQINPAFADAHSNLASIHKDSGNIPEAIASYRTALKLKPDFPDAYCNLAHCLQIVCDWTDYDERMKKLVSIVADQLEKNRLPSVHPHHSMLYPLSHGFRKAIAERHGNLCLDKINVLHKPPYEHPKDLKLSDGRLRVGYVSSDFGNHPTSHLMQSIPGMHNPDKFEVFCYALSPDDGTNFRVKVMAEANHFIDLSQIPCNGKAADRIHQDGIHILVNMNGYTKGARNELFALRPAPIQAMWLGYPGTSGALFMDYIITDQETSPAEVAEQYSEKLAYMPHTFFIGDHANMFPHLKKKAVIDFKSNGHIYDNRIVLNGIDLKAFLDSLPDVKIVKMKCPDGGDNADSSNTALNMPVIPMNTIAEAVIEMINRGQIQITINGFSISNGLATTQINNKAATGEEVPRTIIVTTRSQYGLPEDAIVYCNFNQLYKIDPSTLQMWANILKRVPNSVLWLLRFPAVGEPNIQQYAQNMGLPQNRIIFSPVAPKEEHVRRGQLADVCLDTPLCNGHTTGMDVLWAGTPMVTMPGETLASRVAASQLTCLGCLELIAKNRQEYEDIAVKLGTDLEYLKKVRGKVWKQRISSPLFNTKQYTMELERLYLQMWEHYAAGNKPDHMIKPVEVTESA
Experimental: Materials for this assay were obtained from Promega (catalog #V6961). […] Assays were performed in white, 384-well or H volume 96-well plates. Quantities in parenthesis apply to reactions run in H volume 96-well plates. Reaction volumes were 12 (24) μL. […] The quenched reactions were then mixed briefly by shaking at 600 rpm in a Thermomixer C, spun down at 400×g for 1 minute, and incubated for one hour at room temperature prior to reading luminescence, as per the manufacturer's guidelines. Data were analyzed by Microsoft Excel and Prism 7 (Graphpad). […] Each sample was run in duplicate, unless otherwise specified.

Kinetic solubility = assay type: physicochemical; settings: kinetic from dmso stock
PAMPA assay = assay type: in vitro ADME; settings: read-out: Permeability
[1] = Rat liver microsome stability assay; assay type: in vitro ADME; settings: rat liver microsomes; read-out: RLM Stability (t1/2)
[2] = system: global O-GlcNAcylation in HEK293T cells; assay: Western blotting for global O-GlcNAc levels in HEK293T cells; assay type: cell-based; settings: for protein O-GlcNAcylation: from 2 hours (FIG. 13E); for global O-GlcNAc levels, dose dependence: 4 hours (FIG. 13C); for O-GlcNAc levels after prolonged treatment: 96 hours (FIG. 13E)
[3] = system: global O-GlcNAcylation in HCT116 cells; assay: Western blotting for global O-GlcNAc levels in HCT116 cells; assay type: cell-based; settings: for O-GlcNAc levels, dose dependence: HCT116, 20-80 μM, 4 hours or 24 hours
[4] = system: HCF-1 cleavage in HEK293T cells; assay: HCF-1 cleavage in HEK293T cells (Western blotting); assay type: cell-based; settings: for uncleaved HCF-1: over 96 hours
Excerpt: (§1) In addition to glycosylating Ser/Thr residues of proteins, OGT catalyzes cleavage of the cell-cycle regulator HCF-1 by glycosylating a glutamate in the HCF-1 cleavage sequence.^4c,7 An OGT inhibitor would be expected to block cleavage. Indeed, a decrease in HCF-1 cleavage products and the appearance of uncleaved HCF-1 in cells treated with 1b, 2b or 4b was observed (FIGS. 2E, 16). Because OGT knockdown is known to decrease cell proliferation,^8 the effects of 1b, 2b, and 4b on cell growth in culture over 96 hours were also monitored. Although there was no evidence of apoptosis, reduced growth of cells was observed over time (FIG. 17), consistent with the knockdown results.

HCT116 cells = assay: Cell viability and live-cell imaging (IncuCyte confluence, CellTiter-Glo); assay type: cell-based; settings: for cellular confluency relative to DMSO control: HCT116, 40 μM, 96 hours; for cell growth: HCT116, 96 hours, 10 or 40 μM
Experimental: (§2) HCT116 cells were plated into 384-well plate one day prior to treatment with compounds (300 cells per well). Compounds were dispensed using a D300e Digital Dispenser (Tecan). Cells were imaged every 3 hours using an IncuCyte ZOOM instrument (Sartorius) to generate growth curves. After four days of treatment, cell viability was assessed using the CellTiter-Glo® Luminescent Cell Viability Assay (Promega). Luminescence signal was recorded using the GloMax® Explorer System (Promega). For Cytotoxicity, HEK293T cells were plated into a 96-well plate two days prior to treatment with compounds at 80% confluency. The number of dead cells were assessed by CellTox™ Green Cytotoxicity Assay (Promega).

HEK293T cells [5] = assay: CellTox Green Cytotoxicity Assay; assay type: cell-based; settings: 24 hours, 0-50 μM
Experimental: as §2

[6] = system: OGT's detained intron (intron 4) in HEK293T cells; assay: Quantitative PCR of OGT detained intron splicing; assay type: cell-based; settings: 10 μM, 2-hour treatment
Experimental: Total RNA was harvested directly from tissue culture plates using Trizol (Life Technologies) according to the manufacturer's directions. In all experiments, total RNA was treated with Turbo DNase (Life Technologies) to remove any residual DNA contamination, extracted in acid-buffered phenol/chloroform, and ethanol-precipitated. Reverse transcription was performed using 2 μg of DNase-treated total RNA in a 20 μL reaction following the manufacturer's protocol (SuperScript III, Life Technologies) for 1 h at 50° C. cDNA reactions were […] diluted 1:10, and 1 μL was used in each PCR reaction. Real-time qRT-PCR was performed using PowerUp SYBR Green (Life Technologies) on a StepOne-Plus Real-Time PCR System (Applied Biosystems).

[7] = system: global O-GlcNAcylation in PC3 cells; assay: Western blotting for O-GlcNAc levels in PC3 cells; settings: PC3 prostate cancer cells
Experimental: (§3) Cells were plated and grown in their respective media until they reached a confluency of 60-80%. […] For all other cell lines, compounds were dissolved in 0.2 mL of fresh media and then added directly to the cells.
(§4) Cell lysates for from HEK293T, LNCaP, HCT116 and PC3 cells were prepared for western blotting in the following manner, and all the steps were conducted at 4° C. […] Samples were transferred to a nitrocellulose membrane (Bio-Rad). Membranes were blocked with 5% bovine serum albumin in TBST and probed with primary antibodies overnight at 4° C. and for 1 h at RT with peroxidase conjugated secondary antibodies, as indicated in each figure. Blots were developed using enhanced chemiluminescence (Pierce) and visualized with an Amersham Imager 600.

[8] = system: global O-GlcNAcylation in LNCaP cells; assay: Western blotting for O-GlcNAc levels in LNCaP cells; settings: LNCaP prostate cancer cells
Experimental: as §3, §4

HEK293T cells [9] = assay: Quantitative proteomics / protein abundance in HEK293T cells; settings: 20 μM
Experimental: At the indicated time point, cells were lysed in lysis buffer (2% SDS 50 mM Tris-HCl and 150 mM NaCl), sonicated (BioDisruptor) and protein concentration determined with the BCA assay. Samples were reduced with 5 mM DTT for 45 mins at 60° C., then alkylated with 14 mM iodoacetamide for 45 mins at room temperature in the dark. Then 100 μg of protein was precipitated using chloroform/methanol.^32 Protein pellets were resuspended in 200 mM HEPES pH 8.5 to 1 mg/mL. Proteins were digested with LysC (Wako) (substrate:enzyme=100) overnight at 37° C. and then with sequencing grade Trypsin (Promega) (substrate:enzyme=100) for 6 hours at 37° C. The resulting peptide solutions were then labelled with TMT 10/11-plex reagents (Thermo Scientific) for 1.5 hours at room temperature. Reactions were stopped by addition of 5% hydroxylamine for 30 minutes. Equal amounts of peptide samples were combined, dried by vacuum centrifugation and desalted on a Waters C18 solid phase extraction Sep-Pak. TMT-labeled peptide samples were fractionated via basic-pH reverse-phase (BPRP) HPLC to 96 fractions and then consolidated to 12 fractions. These fractions were subsequently acidified with 1% formic acid, vacuum centrifuged to near dryness and desalted with C18 stagetips.^32 Dried peptides were resuspended in 5% acetonitrile/5% formic acid for LC-MS/MS processing. […]
Precursors for MS2/MS3 analysis were selected using a Top10 method. […] Following acquisition of each MS2 spectrum, an MS3 spectrum was collected using the recently described method in which multiple MS2 fragment ions were captured in the MS3 precursor population using isolation waveforms with multiple frequency notches.^33b MS3 precursors were fragmented by high energy collision-induced dissociation (HCD) and analyzed using the Orbitrap (NCE 65; AGC 1.5×10^5; maximum injection time 150 ms, resolution was 50,000 at 400 Th, isolation window 0.7 Da).
Mass spectra were processed using a SEQUEST-based pipeline^23 Spectra were converted to mzXML using a modified version of ReAdW.exe. […]

[10] = system: HCF-1 cleavage in HCT116 cells; assay: HCF-1 cleavage in HCT116 cells (Western blotting); assay type: cell-based; settings: HCT116, 20-80 μM, 24 hours
Excerpt: as §1

OGT = target: T2, OGT (Homo sapiens, UniProt O15294); settings: SPR, value in parentheses; read-out: Binding affinity (Kd ± s.d.) determined by SPR; cited from earlier work
T2 sequence (O15294 1-1046): T1 sequence (O15294 1-1046)

full length OGT = target: T3, full length OGT (Homo sapiens, UniProt O15294); assay: Dissociation constants by microscale thermophoresis (MST); settings: read-out: Binding affinity (Kd ± s.d.), binding of compounds to OGT
T3 sequence (O15294 1-1046): T1 sequence (O15294 1-1046)
Experimental: Excess NHS-ester was removed with a Zeba™ Spin desalting column (ThermoFisher). A range of concentrations of the ligand were prepared in which the concentration of labeled OGT was kept constant at 5 nM, and all experiments were performed in MST running buffer (PBS, pH 7.4, 0.05% Tween-20, 1 mM DTT, 2% glycerol, 0.5% DMSO). Mixtures were incubated for at least 10 minutes to facilitate binding before MST experiments. MST experiments were carried out using 60% LED power and 20% MST power in standard capillaries (from NanoTemper Technologies). […] Kd values were calculated using a user-defined mass action equation in the GraphPad Prism 6 software (GraphPad Software, Inc.).

SMILES | solubility (Kinetic solubility) [µg/mL] | Papp (PAMPA assay) [×10⁻⁶ cm/s] | half-life [1] [min] | protein O-GlcNAcylation ([2]; HEK293T, 20 μM) | global O-GlcNAc levels, dose dependence ([2]; HEK293T) | O-GlcNAc levels after prolonged treatment ([2]; HEK293T) | O-GlcNAc levels, dose dependence [3] | uncleaved HCF-1 [4] | cellular confluency relative to DMSO control (HCT116 cells) | cell growth (HCT116 cells) | cytotoxic cell death (HEK293T cells [5]) | detained intron splicing of OGT transcript [6] | O-GlcNAc levels [7] | O-GlcNAc levels [8] | other results
CCOC(=O)CN(Cc1cccs1)C(=O)[C@H](NS(=O)(=O)c1cc2ccc(=O)[nH]c2cc1C)c1ccccc1OC | 21.1 (≈ 36.1 µM) | 511 | 1.3 |  |  |  |  |  |  |  |  |  |  |  | IC50 (ncOGT; UDP-Glo assay, 300 nM ncOGT, 40 μM UDP-GlcNAc): 1.8 µM; Ki (ncOGT; calculated from IC50 (UDP-Glo) by Cheng-Prusoff): 0.103 µM
COC(=O)CN(Cc1cccs1)C(=O)[C@H](NS(=O)(=O)c1ccc2[nH]c(=O)ccc2c1)c1ccccc1OC [1b, Methyl (R)—N-(2-(2-methoxyphenyl)-2-((2-oxo-1,2-dihydroquinoline)-6-sulfonamido)acetyl)-N-(thiophen-2-ylmethyl)glycinate] |  |  |  | decreased protein O-GlcNAcylation in as little as 2 hours | dose dependent decreases in global O-GlcNAc levels | recover | dose dependent decreases in O-GlcNAc levels | time dependent increase in uncleaved HCF-1 | confluency is reduced | reduced cell growth compared with the control | did not result in cytotoxic cell death | increased detained intron splicing | Decreases in O-GlcNAc levels | Decreases in O-GlcNAc levels | O-GlcNAc levels ([2]; HEK293T, 20 μM, 24 hours (FIG. 13B)): O-GlcNAc levels recover after 24 hours; ability to inhibit global O-GlcNAcylation ([2]; short treatment times (<8 hr)): decent inhibitor; OGT level (Western blotting) (HEK293T cells [9]; 4 and 24 hours): an increase in OGT; changes in abundance of other proteins (off-target activity) (HEK293T cells [9]; 24 hr): Few significant changes; abundance of OGT and OGA (proteomics) (HEK293T cells [9]; time course 8, 16, 24 hours): reciprocal changes in the abundance of OGT and OGA
CCOC(=O)CCCOc1ccccc1[C@@H](NS(=O)(=O)c1ccc2[nH]c(=O)ccc2c1)C(=O)N(CC(=O)OCC)Cc1cccs1 [2b, Ethyl (R)-4-(2-(2-((2-ethoxy-2-oxoethyl)(thiophen-2-ylmethyl)amino)-2-oxo-1-((2-oxo-1,2-dihydroquinoline)-6-sulfonamido)ethyl)phenoxy)butanoate] |  |  |  | decreased protein O-GlcNAcylation in as little as 2 hours | dose dependent decreases in global O-GlcNAc levels | remain very low | dose dependent decreases in O-GlcNAc levels | time dependent increase in uncleaved HCF-1 | confluency is reduced | reduced cell growth compared with the control | did not result in cytotoxic cell death | increased detained intron splicing | Decreases in O-GlcNAc levels | Decreases in O-GlcNAc levels | ability to inhibit global O-GlcNAcylation, ranking ([2]; HCT116, HEK293T, PC3, and LNCaP cells): best activity; global O-GlcNAc levels, comparison with 1b ([3]; HCT116, 24-hour treatment, 20 μM (FIG. 15B)): more effective than 1b; HCF-1 cleavage ([4]; 20 μM, 48 hours): blocked HCF-1 cleavage; HCF-1 cleavage, 2b compared with 1b [10]: more effective at reducing HCF-1 cleavage
CC(=O)N[C@H]1[C@@H](OP(=O)(O)OP(=O)(O)OC[C@H]2O[C@@H](n3ccc(=O)[nH]c3=O)[C@H](O)[C@@H]2O)O[C@H](CO)[C@@H](O)[C@@H]1O [UDP-GlcNAc, reference compound] |  |  |  |  |  |  |  |  |  |  |  |  |  |  | Kd (OGT): 16.1 µM; Kd (full length OGT): 16 ± 4 µM
CCOC(=O)CN(Cc1cccs1)C(=O)[C@H](NS(=O)(=O)c1cc2ccc(=O)[nH]c2cc1Cl)c1ccccc1OC [drawing 86] | 19 (≈ 31.5 µM) | 540 | 1.9 |  |  |  |  |  |  |  |  |  |  |  | 
